Assay results from the NIST ThermoML archive (doi:10.1016/j.jct.2014.05.020).

Assay: excess molar enthalpy (molar enthalpy of mixing); xn = mol fraction of the nth substance listed
Conditions: Flow calorimetry

C1CCCCC1 [cyclohexane] + c1ccccc1
Conditions	excess molar enthalpy [kJ/mol]
423.2 K, 25000 kPa, Liquid, x2 = 0.829	0.307
423.2 K, 25000 kPa, Liquid, x2 = 0.8729	0.241
423.2 K, 25000 kPa, Liquid, x2 = 0.916	0.165
423.2 K, 25000 kPa, Liquid, x2 = 0.9584	0.0808
473.2 K, 5000 kPa, Liquid, x2 = 0.1189	0.189
473.2 K, 5000 kPa, Liquid, x2 = 0.1765	0.265
473.2 K, 5000 kPa, Liquid, x2 = 0.233	0.325
473.2 K, 5000 kPa, Liquid, x2 = 0.3424	0.414
473.2 K, 5000 kPa, Liquid, x2 = 0.4475	0.46
473.2 K, 5000 kPa, Liquid, x2 = 0.5485	0.464
473.2 K, 5000 kPa, Liquid, x2 = 0.6457	0.433
473.2 K, 5000 kPa, Liquid, x2 = 0.7392	0.365
473.2 K, 5000 kPa, Liquid, x2 = 0.8293	0.265
473.2 K, 5000 kPa, Liquid, x2 = 0.8732	0.203
473.2 K, 5000 kPa, Liquid, x2 = 0.9162	0.139
473.2 K, 5000 kPa, Liquid, x2 = 0.9585	0.0771
473.2 K, 15000 kPa, Liquid, x2 = 0.1188	0.181
473.2 K, 15000 kPa, Liquid, x2 = 0.1763	0.253
473.2 K, 15000 kPa, Liquid, x2 = 0.2327	0.314
473.2 K, 15000 kPa, Liquid, x2 = 0.3421	0.4
473.2 K, 15000 kPa, Liquid, x2 = 0.4471	0.445
473.2 K, 15000 kPa, Liquid, x2 = 0.5482	0.45
473.2 K, 15000 kPa, Liquid, x2 = 0.6454	0.42
473.2 K, 15000 kPa, Liquid, x2 = 0.7389	0.355
473.2 K, 15000 kPa, Liquid, x2 = 0.8291	0.258
473.2 K, 15000 kPa, Liquid, x2 = 0.873	0.197
473.2 K, 15000 kPa, Liquid, x2 = 0.9161	0.132
473.2 K, 15000 kPa, Liquid, x2 = 0.9584	0.0724
473.2 K, 25000 kPa, Liquid, x2 = 0.1187	0.176
473.2 K, 25000 kPa, Liquid, x2 = 0.1762	0.246
473.2 K, 25000 kPa, Liquid, x2 = 0.2325	0.305
473.2 K, 25000 kPa, Liquid, x2 = 0.3418	0.389
473.2 K, 25000 kPa, Liquid, x2 = 0.4469	0.431
473.2 K, 25000 kPa, Liquid, x2 = 0.5479	0.436
473.2 K, 25000 kPa, Liquid, x2 = 0.6451	0.405
473.2 K, 25000 kPa, Liquid, x2 = 0.7388	0.341
473.2 K, 25000 kPa, Liquid, x2 = 0.829	0.244
473.2 K, 25000 kPa, Liquid, x2 = 0.8729	0.185
473.2 K, 25000 kPa, Liquid, x2 = 0.916	0.12
473.2 K, 25000 kPa, Liquid, x2 = 0.9584	0.0624
498.2 K, 5000 kPa, Liquid, x2 = 0.1189	0.187
498.2 K, 5000 kPa, Liquid, x2 = 0.1765	0.261
498.2 K, 5000 kPa, Liquid, x2 = 0.233	0.324
498.2 K, 5000 kPa, Liquid, x2 = 0.3424	0.411
498.2 K, 5000 kPa, Liquid, x2 = 0.4475	0.457
498.2 K, 5000 kPa, Liquid, x2 = 0.5485	0.461
498.2 K, 5000 kPa, Liquid, x2 = 0.6457	0.429
498.2 K, 5000 kPa, Liquid, x2 = 0.7392	0.361
498.2 K, 5000 kPa, Liquid, x2 = 0.8293	0.259
498.2 K, 5000 kPa, Liquid, x2 = 0.8732	0.195
498.2 K, 5000 kPa, Liquid, x2 = 0.9162	0.124
498.2 K, 15000 kPa, Liquid, x2 = 0.1188	0.175
498.2 K, 15000 kPa, Liquid, x2 = 0.1763	0.244
498.2 K, 15000 kPa, Liquid, x2 = 0.2327	0.3
498.2 K, 15000 kPa, Liquid, x2 = 0.3421	0.381
498.2 K, 15000 kPa, Liquid, x2 = 0.4471	0.422
498.2 K, 15000 kPa, Liquid, x2 = 0.5482	0.425
498.2 K, 15000 kPa, Liquid, x2 = 0.6454	0.395
498.2 K, 15000 kPa, Liquid, x2 = 0.7389	0.331
498.2 K, 15000 kPa, Liquid, x2 = 0.8291	0.236
498.2 K, 15000 kPa, Liquid, x2 = 0.873	0.176
498.2 K, 15000 kPa, Liquid, x2 = 0.9161	0.11
523.2 K, 5000 kPa, Liquid, x2 = 0.1189	0.192
523.2 K, 5000 kPa, Liquid, x2 = 0.1765	0.269
523.2 K, 5000 kPa, Liquid, x2 = 0.233	0.334
523.2 K, 5000 kPa, Liquid, x2 = 0.3424	0.425
523.2 K, 5000 kPa, Liquid, x2 = 0.4475	0.47
523.2 K, 5000 kPa, Liquid, x2 = 0.5485	0.476
523.2 K, 5000 kPa, Liquid, x2 = 0.6457	0.439
523.2 K, 5000 kPa, Liquid, x2 = 0.7392	0.367
523.2 K, 5000 kPa, Liquid, x2 = 0.8293	0.259
523.2 K, 5000 kPa, Liquid, x2 = 0.8732	0.194
523.2 K, 5000 kPa, Liquid, x2 = 0.9162	0.127
523.2 K, 5000 kPa, Liquid, x2 = 0.9585	0.0725
523.2 K, 15000 kPa, Liquid, x2 = 0.1188	0.162
523.2 K, 15000 kPa, Liquid, x2 = 0.1763	0.226
523.2 K, 15000 kPa, Liquid, x2 = 0.2327	0.279
523.2 K, 15000 kPa, Liquid, x2 = 0.3421	0.358
523.2 K, 15000 kPa, Liquid, x2 = 0.4471	0.396
523.2 K, 15000 kPa, Liquid, x2 = 0.5482	0.398
523.2 K, 15000 kPa, Liquid, x2 = 0.6454	0.368
523.2 K, 15000 kPa, Liquid, x2 = 0.7389	0.306
523.2 K, 15000 kPa, Liquid, x2 = 0.8291	0.216
523.2 K, 15000 kPa, Liquid, x2 = 0.873	0.164
523.2 K, 15000 kPa, Liquid, x2 = 0.9161	0.104
523.2 K, 15000 kPa, Liquid, x2 = 0.9584	0.0534
523.2 K, 25000 kPa, Liquid, x2 = 0.1187	0.154
523.2 K, 25000 kPa, Liquid, x2 = 0.1762	0.216
523.2 K, 25000 kPa, Liquid, x2 = 0.2325	0.269
523.2 K, 25000 kPa, Liquid, x2 = 0.3418	0.342
523.2 K, 25000 kPa, Liquid, x2 = 0.4469	0.376
523.2 K, 25000 kPa, Liquid, x2 = 0.5479	0.378
523.2 K, 25000 kPa, Liquid, x2 = 0.6451	0.35
523.2 K, 25000 kPa, Liquid, x2 = 0.7388	0.29
523.2 K, 25000 kPa, Liquid, x2 = 0.829	0.202
523.2 K, 25000 kPa, Liquid, x2 = 0.8729	0.153
523.2 K, 25000 kPa, Liquid, x2 = 0.916	0.0978
523.2 K, 25000 kPa, Liquid, x2 = 0.9584	0.0514
573.2 K, 15000 kPa, Fluid (supercritical or subcritical phases), x2 = 0.1188	0.15
573.2 K, 15000 kPa, Fluid (supercritical or subcritical phases), x2 = 0.1763	0.211
573.2 K, 15000 kPa, Fluid (supercritical or subcritical phases), x2 = 0.2327	0.256
573.2 K, 15000 kPa, Fluid (supercritical or subcritical phases), x2 = 0.3421	0.33
573.2 K, 15000 kPa, Fluid (supercritical or subcritical phases), x2 = 0.4471	0.368
573.2 K, 15000 kPa, Fluid (supercritical or subcritical phases), x2 = 0.5482	0.373
573.2 K, 15000 kPa, Fluid (supercritical or subcritical phases), x2 = 0.6454	0.344
573.2 K, 15000 kPa, Fluid (supercritical or subcritical phases), x2 = 0.7389	0.287
573.2 K, 15000 kPa, Fluid (supercritical or subcritical phases), x2 = 0.8291	0.206
573.2 K, 15000 kPa, Fluid (supercritical or subcritical phases), x2 = 0.873	0.151
573.2 K, 15000 kPa, Fluid (supercritical or subcritical phases), x2 = 0.9161	0.104
573.2 K, 15000 kPa, Fluid (supercritical or subcritical phases), x2 = 0.9584	0.0501
573.2 K, 25000 kPa, Fluid (supercritical or subcritical phases), x2 = 0.1187	0.139
573.2 K, 25000 kPa, Fluid (supercritical or subcritical phases), x2 = 0.1762	0.198
573.2 K, 25000 kPa, Fluid (supercritical or subcritical phases), x2 = 0.2325	0.239
573.2 K, 25000 kPa, Fluid (supercritical or subcritical phases), x2 = 0.3418	0.309
573.2 K, 25000 kPa, Fluid (supercritical or subcritical phases), x2 = 0.4469	0.345
573.2 K, 25000 kPa, Fluid (supercritical or subcritical phases), x2 = 0.5479	0.349
573.2 K, 25000 kPa, Fluid (supercritical or subcritical phases), x2 = 0.6451	0.321
573.2 K, 25000 kPa, Fluid (supercritical or subcritical phases), x2 = 0.7388	0.268
573.2 K, 25000 kPa, Fluid (supercritical or subcritical phases), x2 = 0.829	0.188
573.2 K, 25000 kPa, Fluid (supercritical or subcritical phases), x2 = 0.8729	0.139
573.2 K, 25000 kPa, Fluid (supercritical or subcritical phases), x2 = 0.916	0.0838
573.2 K, 25000 kPa, Fluid (supercritical or subcritical phases), x2 = 0.9584	0.0399
